# Assay results from patent US20030096956A1, “Process for producing kiss-1 peptide” (priority 1999, published 2003).
# Ends that are not written are not given here.
# Tested on: intracellular calcium ion concentration
# Test: activity of increasing intracellular calcium ion concentration (method of Example 3 of WO 99/33976)
# Format: cell-based
# Settings: compared with a standard product isolated from human placenta extract
substance,measurement,value
"human KiSS-1 peptide: Recombinant peptide of SEQ ID NO: 1 with C-terminal amide, cleaved from KiSS-1 peptide-CS23 fusion protein expressed in E. coli (GTSLSPPPESSGSRQQPGLSAPHSRQIPAPQGAVLVQREKDLPNYNWNSFGLRF-NH2)",activity of increasing intracellular calcium ion concentration,equivalent to that of a standard product isolated from human placenta extract
